Key:
HCC1419 = experiment: GRmax, 72 h; higher = less effect;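 further: breast cell lines in 384-well plates, nine doses across a 10^4 range, Dye Drop imaging of viable cells vs DMSO and time-zero plates, GR 0 means no net growth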
HCC38 = experiment: GRmax, 72 h; higher = less effect;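 further: breast cell lines in 384-well plates, nine doses across a 10^4 range, Dye Drop imaging of viable cells vs DMSO and time-zero plates, GR 0 means no net growth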
SUM190PT = experiment: GRmax, 72 h; higher = less effect;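 further: breast cell lines in 384-well plates, nine doses across a 10^4 range, Dye Drop imaging of viable cells vs DMSO and time-zero plates, GR 0 means no net growth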
MDAMB175VII [1] = experiment: GRmax, 72 h; higher = less effect;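 further: breast cell lines in 384-well plates, nine doses across a 10^4 range, Dye Drop imaging of viable cells vs DMSO and time-zero plates, GR 0 means no net growth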
EVSAT = experiment: GRmax, 72 h; higher = less effect
MDAMB436 = experiment: GRmax, 72 h; higher = less effect
CAL851 = experiment: GRmax, 72 h; higher = less effect
BT549 = experiment: GRmax, 72 h; higher = less effect
PDX1258 = experiment: GRmax, 72 h; higher = less effect
MCF12A = experiment: area over the GR curve, 72 h; higher = more effect;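 further: Dye Drop or Deep Dye Drop imaging of viable cells in 384-well plates (Hoechst nuclei, LIVE/DEAD dye), nine half-log doses, GR normalized to DMSO controls and time-zero plates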
MDAMB175VII [2] = experiment: area over the GR curve, 72 h; higher = more effect;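 further: Dye Drop or Deep Dye Drop imaging of viable cells in 384-well plates (Hoechst nuclei, LIVE/DEAD dye), nine half-log doses, GR normalized to DMSO controls and time-zero plates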
HCC1395 = experiment: area over the GR curve, 72 h; higher = more effect;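 further: Dye Drop or Deep Dye Drop imaging of viable cells in 384-well plates (Hoechst nuclei, LIVE/DEAD dye), nine half-log doses, GR normalized to DMSO controls and time-zero plates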

Structure (SMILES)	GRmax, 72 h (HCC1419) [GR]	GRmax, 72 h (HCC38) [GR]	GRmax, 72 h (SUM190PT) [GR]	GRmax, 72 h (MDAMB175VII [1]) [GR]	GRmax, 72 h (EVSAT) [GR]	GRmax, 72 h (MDAMB436) [GR]	GRmax, 72 h (CAL851) [GR]	GRmax, 72 h (BT549) [GR]	GRmax, 72 h (PDX1258) [GR]	area over the GR curve (MCF12A) [GR]	area over the GR curve (MDAMB175VII [2]) [GR]	area over the GR curve (HCC1395) [GR]
CC(=O)Nc1cccc(-n2c(=O)n(C3CC3)c(=O)c3c(Nc4ccc(I)cc4F)n(C)c(=O)c(C)c32)c1 (max 1 µM)	0.426	0.185	0.744	-0.698	0.939	0.557	0.234	0.598	0.85	0.531	0.938	0.185
CC(=O)c1c(C)c2cnc(Nc3ccc(N4CCNCC4)cn3)nc2n(C2CCCC2)c1=O (max 3.162 µM)	0.441	0.147	0.347	-0.0887	0.646	1.06	1.08	1.08	1.02	0.0837	0.763	0.274
COc1cccc2c1C(=O)c1c(O)c3c(c(O)c1C2=O)C[C@@](O)(C(=O)CO)C[C@@H]3O[C@H]1C[C@H](N)[C@H](O)[C@H](C)O1 [Doxorubicin] (max 3.162 µM)	-0.466	-0.406	-0.123	-0.595	-0.192	-0.129	-0.378	-0.331	-0.493	0.601	0.908	0.637
COc1cc([C@@H]2c3cc4c(cc3[C@@H](O[C@@H]3O[C@@H]5CO[C@@H](C)O[C@H]5[C@H](O)[C@H]3O)[C@H]3COC(=O)[C@H]23)OCO4)cc(OC)c1O [Etoposide] (max 10 µM)	0.0317	-0.424	–	–	–	-0.157	-0.241	-0.195	-0.181	–	–	0.389
CCC(=O)Nc1ccc(C(=O)Nc2ccc(Nc3ncc4c(n3)N(C)c3ccc(C)cc3C(=O)N4C)cc2)cc1 [FMF-03-145-1]	0.387	-0.376	0.0989	0.0817	-0.139	-0.189	-0.136	-0.0339	-0.267	0.345	0.919	0.52
C=CCn1c(=O)c2cnc(Nc3ccc(N4CCN(C)CC4)cc3)nc2n1-c1cccc(C(C)(C)O)n1 [AZD1775] (max 10 µM)	-0.0276	-0.492	-0.197	-0.203	-0.39	-0.26	-0.55	-0.456	-0.46	0.255	0.587	0.886
CC(=O)O[C@H]1C(=O)[C@@]2(C)[C@H]([C@H](OC(=O)c3ccccc3)[C@]3(O)C[C@H](OC(=O)[C@H](O)[C@@H](NC(=O)c4ccccc4)c4ccccc4)C(C)=C1C3(C)C)[C@]1(OC(C)=O)CO[C@@H]1C[C@@H]2O [Paclitaxel] (max 1 µM)	0.214	-0.308	-0.283	-0.469	-0.271	-0.218	-0.346	-0.207	-0.0818	0.586	0.837	0.839
CCCCOc1c(C(=O)c2c(F)cc(C)cc2F)c[nH]c2nncc1-2 (max 10 µM)	0.4	-0.0129	-0.0112	-0.0619	0.279	0.264	-0.012	-0.149	-0.232	0.272	0.787	0.807
C[C@@H]1COCCN1c1cc(C2([S@](C)(=N)=O)CC2)nc(-c2cc[nH]c3nccc2-3)n1 [AZD6738] (max 10 µM)	0.367	-0.271	-0.036	0.149	0.742	0.363	0.144	-0.099	-0.295	0.192	0.063	0.194
CC[C@@]1(O)C(=O)OCc2c1cc1n(c2=O)Cc2cc3c(CN(C)C)c(O)ccc3nc2-1 [Topotecan] (max 10 µM)	-0.786	-0.504	–	–	–	-0.14	-0.296	-0.241	-0.457	–	–	1.08
CCN1CCN(Cc2ccc(Nc3ncc(F)c(-c4cc(F)c5nc(C)n(C(C)C)c5c4)n3)nc2)CC1 (max 10 µM)	0.228	-0.327	-0.582	-0.192	-0.545	-0.333	-0.224	0.0333	-0.331	0.169	0.901	0.562
Cc1cc(Nc2ncc(Cl)c(Nc3ccccc3S(=O)(=O)C(C)C)n2)c(OC(C)C)cc1C1CCNCC1 [Ceritinib/LDK378] (max 10 µM)	-0.867	-0.404	-0.375	0.261	0.646	-0.697	-0.596	-0.228	-0.684	0.0596	-0.0348	0.215
COc1cc2c(Oc3ccc4[nH]c(C)cc4c3F)ncnc2cc1OCCCN1CCCC1 [Cediranib/AZD2171] (max 10 µM)	-0.0329	-0.204	0.893	-0.648	0.498	-0.382	-0.238	-0.135	-0.561	-0.0002	0.193	0.223
CNCc1ccc(-c2[nH]c3cc(F)cc4c3c2CCNC4=O)cc1 [Rucaparib] (max 10 µM)	0.855	0.652	0.771	0.56	0.908	0.222	0.44	0.91	0.564	0.0783	0.136	0.385
NC(=O)Nc1cc(-c2cccc(F)c2)sc1C(=O)N[C@H]1CCCNC1 [AZD7762] (max 10 µM)	-0.0826	-0.334	-0.341	-0.811	-0.319	-0.281	-0.322	-0.482	-0.453	0.521	0.816	0.857
N.N.[Cl][Pt][Cl] [Cisplatin] (max 10 µM)	0.0949	-0.103	–	–	–	-0.0204	0.018	0.0674	0.318	–	–	0.386
